Measured values published in patent US20260327191A1, “GSK3a INHIBITORS AND METHODS OF USE THEREOF” (Blueprint Medicines Corporation, priority 2023, published 2026).
pIC50: −log10 of the molar value. Structures can show the parent of a compound that is named as a salt.

What was measured:
[1] = biological target: T1, human GSK3α (Homo sapiens, UniProt P49840); assay: In vitro enzymatic activity assay, GSK3α; type: biochemical; settings: 1.0 mM ATP, 1.0 μM peptide substrate, 120 min, 25° C, read-out: Enzyme GSK3α (IC50)
T1 construct: Full length human GSK3α or GSK3B expressed as N-terminal GST fusion proteins; GST (N); purchased Carna Biosciences (Japan); host or cells: baculovirus host
T1 sequence (P49840 whole entry, the tested form may be a part): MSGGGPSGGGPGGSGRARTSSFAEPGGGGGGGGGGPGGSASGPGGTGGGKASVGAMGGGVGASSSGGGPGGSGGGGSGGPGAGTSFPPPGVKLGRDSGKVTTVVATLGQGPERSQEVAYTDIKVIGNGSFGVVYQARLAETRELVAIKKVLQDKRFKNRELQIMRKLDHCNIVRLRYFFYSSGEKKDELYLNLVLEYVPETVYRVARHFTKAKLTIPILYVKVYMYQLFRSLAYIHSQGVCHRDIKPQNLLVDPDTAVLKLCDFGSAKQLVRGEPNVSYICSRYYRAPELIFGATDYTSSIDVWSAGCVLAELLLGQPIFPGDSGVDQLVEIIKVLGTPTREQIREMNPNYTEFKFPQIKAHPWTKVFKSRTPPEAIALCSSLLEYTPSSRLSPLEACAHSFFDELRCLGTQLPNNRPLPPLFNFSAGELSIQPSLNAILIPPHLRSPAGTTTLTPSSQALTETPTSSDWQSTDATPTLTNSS

[2] = biological target: T2, GSK3A (Homo sapiens, UniProt P49840); assay: NanoBRET cellular target engagement assay, Nanoluc-GSK3A in HEK293 cells; type: cell-based; settings: NanoBRET GSK3α IC50, HEK293 cells, tracer K-8, 2 hours, 37° C
T2 construct: expressed in transfected cells
T2 sequence (P49840 whole entry): as the sequence (P49840 whole entry, the tested form may be a part) above

[3] = biological target: T3, GSK3B (Homo sapiens, UniProt P49841); assay: NanoBRET cellular target engagement assay, Nanoluc-GSK3B in HEK293 cells; type: cell-based; design: expressed in transfected cells; settings: NanoBRET GSK3β IC50, HEK293 cells, tracer K-8, 2 hours, 37° C
T3 sequence (P49841 whole entry, the tested form may be a part): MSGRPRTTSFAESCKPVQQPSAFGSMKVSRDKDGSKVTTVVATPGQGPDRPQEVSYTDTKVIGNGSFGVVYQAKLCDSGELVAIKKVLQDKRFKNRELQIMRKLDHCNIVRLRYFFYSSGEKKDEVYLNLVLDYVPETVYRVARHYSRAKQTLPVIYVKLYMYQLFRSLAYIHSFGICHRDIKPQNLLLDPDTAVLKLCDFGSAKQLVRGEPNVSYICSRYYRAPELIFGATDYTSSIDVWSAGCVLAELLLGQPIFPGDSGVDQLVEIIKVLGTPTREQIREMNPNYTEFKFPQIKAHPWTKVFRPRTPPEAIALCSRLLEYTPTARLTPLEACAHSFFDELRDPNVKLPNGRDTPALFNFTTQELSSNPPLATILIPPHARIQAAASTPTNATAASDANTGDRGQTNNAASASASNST

[4] = biological target: T3, GSK3B; assay: In vitro enzymatic activity assay, GSK3β; type: biochemical; design: Full length human GSK3α or GSK3B expressed as N-terminal GST fusion proteins; GST (N); purchased Carna Biosciences (Japan); host or cells: baculovirus host; settings: 1.0 mM ATP, 1.0 μM peptide substrate, 120 min, 25° C, read-out: Enzyme GSK3β (IC50)

Row | SMILES | pIC50 [1] | pIC50 [2] | pIC50 [3] | pIC50 [4]
1 | COCc1cc(Cl)c(-n2cnc(N)c(C(=O)Nc3cncc(C4(N)CCC4)c3)c2=O)c(Cl)c1 [Example 65, 4-amino-N-(5-(1-aminocyclobutyl)pyridin-3-yl)-1-(2,6-dichloro-4-(methoxymethyl)phenyl)-6-oxo-1,6-dihydropyrimidine-5-carboxamide] | 8.29 | 8.51 | 6.66 | 6.52
2 | Cc1cc(C(F)(F)F)cc(C)c1-n1cnc(N)c(C(=O)Nc2cncc([C@H]3CCCCN3)c2)c1=S [Example 162, (R)-4-amino-1-(2,6-dimethyl-4-(trifluoromethyl)phenyl)-N-(5-(piperidin-2-yl)pyridin-3-yl)-6-thioxo-1,6-dihydropyrimidine-5-carboxamide trifluoroacetate] | 8.25 | 8.27 | 6.52 | 6.66
3 | CNCc1cncc(NC(=O)c2c(N)ncn(-c3c(C)cc(C(F)F)cc3C)c2=O)c1 [Example 105, 4-amino-1-(4-(difluoromethyl)-2,6-dimethylphenyl)-N-(5-((methylamino)methyl)pyridin-3-yl)-6-oxo-1,6-dihydropyrimidine-5-carboxamide] | 7.71 | 8.14 | 6.24 | 5.95
4 | CCOc1cc(Cl)c(-n2cnc(N)c(C(=O)Nc3cncc(C4(N)CCC4)c3)c2=O)c(Cl)c1 [Example 183, 4-amino-N-(5-(1-aminocyclobutyl)pyridin-3-yl)-1-(2,6-dichloro-4-ethoxyphenyl)-6-oxo-1,6-dihydropyrimidine-5-carboxamide] | 8.10 | 8.30 | 6.52 | 6.24
5 | CCOc1cc(Cl)c(-n2cnc(N)c(C(=O)Nc3cncc([C@@H](C)N)n3)c2=O)c(Cl)c1 (single isomer, unassigned) [Example 219, (R)-4-amino-N-(6-(1-aminoethyl)pyrazin-2-yl)-1-(2,6-dichloro-4-ethoxyphenyl)-6-oxo-1,6-dihydropyrimidine-5-carboxamide or (S)-4-amino-N-(6-(1-aminoethyl)pyrazin-2-yl)-1-(2,6-dichloro-4-ethoxyphenyl)-6-oxo-1,6-dihydropyrimidine-5-carboxamide] | 8.27 | 8.42 | 6.73 | 6.57
6 | Nc1ncn(-c2c(Cl)cc(OC(F)F)cc2Cl)c(=O)c1C(=O)Nc1cncc([C@@H]2CCCCN2)c1 [Example 46, (S)-4-amino-1-(2,6-dichloro-4-(difluoromethoxy)phenyl)-6-oxo-N-(5-(piperidin-2-yl)pyridin-3-yl)-1,6-dihydropyrimidine-5-carboxamide] | 7.98 | 8.14 | 6.40 | 6.31
7 | COCc1cc(Cl)c(-n2cnc(N)c(C(=O)Nc3cncc([C@@H](C)N)c3)c2=O)c(Cl)c1 (single isomer, unassigned) [Example 66, (R)-4-amino-N-(5-(1-aminoethyl)pyridin-3-yl)-1-(2,6-dichloro-4-(methoxymethyl)phenyl)-6-oxo-1,6-dihydropyrimidine-5-carboxamide or (S)-4-amino-N-(5-(1-aminoethyl)pyridin-3-yl)-1-(2,6-dichloro-4-(methoxymethyl)phenyl)-6-oxo-1,6-dihydropyrimidine-5-carboxamide] | 8.22 | 8.54 | 6.69 | 6.46
8 | COc1cc(Cl)c(-n2cnc(N)c(C(=O)Nc3cncc([C@@H](C)N)c3)c2=O)c(Cl)c1 (single isomer, unassigned) [Example 74, (R)-4-amino-N-(5-(1-aminoethyl)pyridin-3-yl)-1-(2,6-dichloro-4-methoxyphenyl)-6-oxo-1,6-dihydropyrimidine-5-carboxamide or (S)-4-amino-N-(5-(1-aminoethyl)pyridin-3-yl)-1-(2,6-dichloro-4-methoxyphenyl)-6-oxo-1,6-dihydropyrimidine-5-carboxamide] | 8.02 | 8.18 | 6.44 | 6.33
9 | CNCc1cncc(NC(=O)c2c(N)ncn(-c3c(Cl)cc(C(F)CF)cc3Cl)c2=O)c1 (single isomer, unassigned) [Example 116, (R)-4-amino-1-(2,6-dichloro-4-(1,2-difluoroethyl)phenyl)-N-(5-((methylamino)methyl)pyridin-3-yl)-6-oxo-1,6-dihydropyrimidine-5-carboxamide or (S)-4-amino-1-(2,6-dichloro-4-(1,2-difluoroethyl)phenyl)-N-(5-((methylamino)methyl)pyridin-3-yl)-6-oxo-1,6-dihydropyrimidine-5-carboxamide] | 8.54 | 8.74 | 6.99 | 6.90
10 | Nc1ncn(-c2c(Cl)cccc2Cl)c(=O)c1C(=O)Nc1cccc([C@H]2CC[C@H](CO)N2)c1 (single isomer, unassigned) [Example 191, 4-amino-1-(2,6-dichlorophenyl)-N-(3-((2R,5R)-5-(hydroxymethyl)pyrrolidin-2-yl)phenyl)-6-oxo-1,6-dihydropyrimidine-5-carboxamide or 4-amino-1-(2,6-dichlorophenyl)-N-(3-((2S,5S)-5-(hydroxymethyl)pyrrolidin-2-yl)phenyl)-6-oxo-1,6-dihydropyrimidine-5-carboxamide] | 8.24 | 8.33 | 6.52 | 6.64
11 | CCOc1cc(C)c(-n2cnc(N)c(C(=O)Nc3cncc(C4CCCC(C)N4)c3)c2=O)c(C)c1 (single isomer, unassigned) [Example 96] | 7.79 | 8.17 | 6.19 | 6.15
12 | COc1cc(Cl)c(-n2cnc(N)c(C(=O)Nc3cncc([C@@H]4CCN4)c3)c2=O)c(Cl)c1 (single isomer, unassigned) [Example 213, (S)-4-amino-N-(5-(azetidin-2-yl)pyridin-3-yl)-1-(2,6-dichloro-4-methoxyphenyl)-6-oxo-1,6-dihydropyrimidine-5-carboxamide or (R)-4-amino-N-(5-(azetidin-2-yl)pyridin-3-yl)-1-(2,6-dichloro-4-methoxyphenyl)-6-oxo-1,6-dihydropyrimidine-5-carboxamide] | 7.48 | 8.11 | 6.00 | 5.75
13 | CCCOc1cc(C)c(-n2cnc(N)c(C(=O)Nc3cncc([C@H]4CCCCN4)c3)c2=O)c(C)c1 [Example 125, (R)-4-amino-1-(2,6-dimethyl-4-propoxyphenyl)-6-oxo-N-(5-(piperidin-2-yl)pyridin-3-yl)-1,6-dihydropyrimidine-5-carboxamide] | 8.31 | 8.57 | 6.79 | 6.53
14 | CCOc1cc(Cl)c(-n2cnc(N)c(C(=O)Nc3cncc(CNCCOC)c3)c2=O)c(Cl)c1 [Example 25, 4-amino-1-(2,6-dichloro-4-ethoxyphenyl)-N-(5-(((2-methoxyethyl)amino)methyl)pyridin-3-yl)-6-oxo-1,6-dihydropyrimidine-5-carboxamide] | 7.86 | 8.12 | 6.15 | 6.16
15 | Cc1cc(C(F)CF)cc(C)c1-n1cnc(N)c(C(=O)Nc2cncc(C3CCCCCN3)c2)c1=O (single isomer, unassigned) [Example 112] | 7.98 | 8.29 | 6.46 | 6.31
16 | Cc1cc(C#N)cc(Cl)c1-n1cnc(N)c(C(=O)Nc2cccc([C@@H](C)N)c2)c1=O (atropisomer, axis not shown) [Example 8, (R)-4-amino-N-(3-(1-aminoethyl)phenyl)-1-((S)-2-chloro-4-cyano-6-methylphenyl)-6-oxo-1,6-dihydropyrimidine-5-carboxamide] | 8.32 | 8.48 | 6.77 | 6.69
17 | COCc1cc(C)c(-n2cnc(N)c(C(=O)Nc3cncc([C@H]4CC[C@H](C)N4)c3)c2=O)c(C)c1 (single isomer, unassigned) [Example 103] | 7.88 | 8.18 | 6.27 | 6.24
18 | COCc1cc(Cl)c(-n2cnc(N)c(C(=O)Nc3cncc(C(C)(C)N)c3)c2=O)c(Cl)c1 [Example 15, 4-amino-N-(5-(2-aminopropan-2-yl)pyridin-3-yl)-1-(2,6-dichloro-4-(methoxymethyl)phenyl)-6-oxo-1,6-dihydropyrimidine-5-carboxamide] | 8.35 | 8.66 | 6.93 | 6.68
19 | C#CCC(N)c1cncc(NC(=O)c2c(N)ncn(-c3c(Cl)cc(OCC)cc3Cl)c2=O)c1 (single isomer, unassigned) [Example 151, (R)-4-amino-N-(5-(1-aminobut-3-yn-1-yl)pyridin-3-yl)-1-(2,6-dichloro-4-ethoxyphenyl)-6-oxo-1,6-dihydropyrimidine-5-carboxamide or (S)-4-amino-N-(5-(1-aminobut-3-yn-1-yl)pyridin-3-yl)-1-(2,6-dichloro-4-ethoxyphenyl)-6-oxo-1,6-dihydropyrimidine-5-carboxamide] | 7.83 | 8.15 | 6.39 | 6.30
